These results are taken from PMC3873546, “Two Distinct Determinants of Ligand Specificity in T1R1/T1R3 (the Umami Taste Receptor)” (The Journal of Biological Chemistry, 2013).

Molecules are shown by their SMILES.

One assay concerns the target T1, hT1R1/mT1R3 (Homo sapiens, UniProt Q7RTX1).
T1 construct: gene TAS1R1; mixed-species heteromer, full-length human T1R1 (841 residues) with mouse T1R3, pEAK10, HEK293T with rG15i2 and mt-apoclytin-II; with Taste receptor type 1 member 3 (Mus musculus)
T1 sequence (Q7RTX1 21-841): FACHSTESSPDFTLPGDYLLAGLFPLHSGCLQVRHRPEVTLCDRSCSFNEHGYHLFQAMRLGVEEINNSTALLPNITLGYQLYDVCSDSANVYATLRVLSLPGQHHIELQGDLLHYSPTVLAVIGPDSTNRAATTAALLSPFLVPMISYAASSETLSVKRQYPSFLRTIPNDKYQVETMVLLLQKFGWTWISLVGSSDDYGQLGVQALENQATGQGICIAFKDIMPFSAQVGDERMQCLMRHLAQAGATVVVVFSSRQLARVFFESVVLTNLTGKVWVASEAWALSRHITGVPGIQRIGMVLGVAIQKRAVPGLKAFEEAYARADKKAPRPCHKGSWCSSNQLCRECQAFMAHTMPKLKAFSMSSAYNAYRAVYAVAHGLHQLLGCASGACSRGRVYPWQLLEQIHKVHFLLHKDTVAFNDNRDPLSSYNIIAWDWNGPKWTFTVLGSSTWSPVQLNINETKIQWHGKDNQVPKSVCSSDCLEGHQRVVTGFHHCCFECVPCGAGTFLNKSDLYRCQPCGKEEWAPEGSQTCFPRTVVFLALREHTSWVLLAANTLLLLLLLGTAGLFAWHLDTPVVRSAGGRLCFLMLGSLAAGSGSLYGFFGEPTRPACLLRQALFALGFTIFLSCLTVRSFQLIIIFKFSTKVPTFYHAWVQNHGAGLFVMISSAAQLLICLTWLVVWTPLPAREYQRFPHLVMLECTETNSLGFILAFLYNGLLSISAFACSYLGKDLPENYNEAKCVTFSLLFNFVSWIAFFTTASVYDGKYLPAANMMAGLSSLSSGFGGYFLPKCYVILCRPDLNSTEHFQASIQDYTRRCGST
T1 sequence (Q925D8 21-858 partner): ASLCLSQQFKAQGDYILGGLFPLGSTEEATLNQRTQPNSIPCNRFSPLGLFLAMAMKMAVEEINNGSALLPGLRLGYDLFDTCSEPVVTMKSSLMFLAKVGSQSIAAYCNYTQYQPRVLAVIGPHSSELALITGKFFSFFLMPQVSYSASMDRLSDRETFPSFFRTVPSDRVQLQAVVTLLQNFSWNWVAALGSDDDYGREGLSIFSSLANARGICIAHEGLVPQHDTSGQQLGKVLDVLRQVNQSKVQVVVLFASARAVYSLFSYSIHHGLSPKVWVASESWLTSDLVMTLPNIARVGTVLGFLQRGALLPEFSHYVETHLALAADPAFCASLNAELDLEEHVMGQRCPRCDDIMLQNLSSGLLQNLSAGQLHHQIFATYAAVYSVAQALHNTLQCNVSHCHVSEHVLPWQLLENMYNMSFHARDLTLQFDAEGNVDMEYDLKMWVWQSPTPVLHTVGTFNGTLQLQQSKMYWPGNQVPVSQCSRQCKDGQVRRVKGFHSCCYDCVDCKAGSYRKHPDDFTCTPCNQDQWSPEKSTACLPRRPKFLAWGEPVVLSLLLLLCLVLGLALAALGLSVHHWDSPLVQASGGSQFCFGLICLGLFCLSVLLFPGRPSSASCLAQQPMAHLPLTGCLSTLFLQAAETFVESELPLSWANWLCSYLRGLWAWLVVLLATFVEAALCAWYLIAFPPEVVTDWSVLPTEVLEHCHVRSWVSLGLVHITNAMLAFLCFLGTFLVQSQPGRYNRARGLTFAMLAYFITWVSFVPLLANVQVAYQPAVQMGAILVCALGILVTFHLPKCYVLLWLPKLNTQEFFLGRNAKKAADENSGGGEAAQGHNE
The assay can be described thus: mt-clytin-II Ca2+ luminescence, HEK293T. Format: cell-based. The conditions noted are these: dose-response curve and 50 mM response, pH 7.4, no IMP; weak agonist.

Assay [1] addresses T2, squirrel monkey T1R1 (with mT1R3) (Saimiri boliviensis, UniProt A0A2K6TN71).
T2 construct: full-length squirrel monkey T1R1 assembled from genomic exons (liver DNA); HEK293T with mouse T1R3; with Taste receptor type 1 member 3 (Mus musculus)
T2 sequence (A0A2K6TN71 21-841): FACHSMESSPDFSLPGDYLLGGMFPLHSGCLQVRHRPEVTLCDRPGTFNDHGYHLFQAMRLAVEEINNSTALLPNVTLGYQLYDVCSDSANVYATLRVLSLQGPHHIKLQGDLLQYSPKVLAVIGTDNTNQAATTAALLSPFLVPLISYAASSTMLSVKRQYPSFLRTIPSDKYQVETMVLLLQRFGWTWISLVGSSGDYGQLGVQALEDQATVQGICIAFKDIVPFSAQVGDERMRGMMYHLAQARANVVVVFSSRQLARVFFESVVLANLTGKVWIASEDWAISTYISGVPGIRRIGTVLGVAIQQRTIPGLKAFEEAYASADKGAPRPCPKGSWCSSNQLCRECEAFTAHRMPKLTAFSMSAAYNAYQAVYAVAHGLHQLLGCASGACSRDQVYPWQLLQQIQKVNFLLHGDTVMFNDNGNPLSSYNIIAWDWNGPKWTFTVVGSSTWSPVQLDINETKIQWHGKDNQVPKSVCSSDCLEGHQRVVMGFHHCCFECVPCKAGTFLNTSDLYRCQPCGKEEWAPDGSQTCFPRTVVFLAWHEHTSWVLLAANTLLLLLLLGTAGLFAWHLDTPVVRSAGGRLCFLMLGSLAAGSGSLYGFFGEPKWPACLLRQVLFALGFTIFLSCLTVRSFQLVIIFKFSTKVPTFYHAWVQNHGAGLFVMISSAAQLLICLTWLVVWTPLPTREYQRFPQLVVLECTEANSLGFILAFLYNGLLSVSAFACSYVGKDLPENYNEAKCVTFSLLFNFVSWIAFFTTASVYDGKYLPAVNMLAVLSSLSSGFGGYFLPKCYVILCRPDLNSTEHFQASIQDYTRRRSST
T2 sequence (Q925D8 21-858 partner): T1 sequence (Q925D8 21-858 partner)
Nature of the assay: mt-clytin-II Ca2+ luminescence, HEK293T. Format: cell-based. The settings on record: dose-response curve only, pH 7.4, no IMP.

The next assay has as its system T3, baboon T1R1 (with mT1R3).
T3 construct: gene TAS1R1
The conditions noted are these: pH 7.4, rG15i2, no IMP; orthosteric site agonist.

Assay [2] deals with T4, hT1R1(m.371–380) (with mT1R3).
T4 construct: gene TAS1R1
The conditions noted are these: pH 7.4, rG15i2, no IMP; orthosteric site agonist.

Turning to `C[C@H](N)C(=O)O` [L-Ala], the “mt-clytin-II Ca2+ luminescence, HEK293T” value on hT1R1/mT1R3 is “the dose-response curves of human (B), macaque (C), baboon (D)”; in assay [1] it was “the squirrel monkey T1R1 demonstrated the greatest L-Ala potency among the four primate T1R1 receptors”.

Broadly, the EC50 is the concentration that produces a half-maximal response. `N[C@@H](CCC(=O)O)C(=O)O` [L-Glu]: the EC50 in the assay on baboon T1R1 (with mT1R3) came out at 1800 ± 400 µM; in assay [2], 110 ± 10 µM.
